Assay in all cases: NCI-60 cell line screen, 48 h
Test [1] has as its system SF-295 CNS.
Test [2] has as its system OVCAR-3 ovarian.
In test [3] the test system is KM12 colon.
For test [4], the system named is NCI-H460 lung.
Test [5] deals with SW-620 colon.
In test [6] the test system is U251 CNS.
The test system of test [7] is UACC-257 melanoma.
For test [8], the system named is MCF7 breast.
The subject of test [9] is MDA-N.
Test [10] has as its system HS 578T breast.

Consider 17 compounds from PubChem BioAssay (NCI).

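A five-concentration, 48-hour dose response in 96-well plates underlies each endpoint, interpolated linearly between surrounding concentrations. The concentration for 50% growth inhibition is given as GI50. The concentration for full growth arrest is given as TGI.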

As to `O=C1C2Cc3ccccc3CN2C(=O)N1CN1CCCCC1` (stereo not given), the TGI in test [1], in test [2], in [3], in [4], in [5] and in test [6] was above 100 µM in each case.
For the compound `Nc1nc2c(nnn2C2C=C(CO)C(O)C2O)c(=O)[nH]1` (stereo not given), the TGI in test [1], in [7], in test [2], in [3], in test [4] and in test [5] was above 100 µM each time. Besides, the TGI in test [6] is above 100 µM.
With `Cc1ccc2c(=O)cc(-c3ccccc3)[nH]c2n1`, the TGI in test [7] was above 43.4 µM; in test [8] it was above 55 µM; in test [9] it was 0.0999 µM; in test [2] it was 0.308 µM; in [3], 45.7 µM; in test [4] it was above 100 µM. In addition, the values for the TGI in [5] and in test [6] were above 100 µM and above 26.3 µM, respectively.
For the compound `c1ccc(C2SCc3nc4ccccc4n32)cc1` (stereo not given), the TGI in test [1] is above 100 µM; in [7], 77.6 µM; in test [2], 54.5 µM; in [3], above 100 µM; in test [4], above 100 µM; in test [5], above 100 µM. This compound showed a TGI in test [6] above 100 µM.
For the compound `CCN1CC2(CO)CCC(OC)C34C5CC6C(OC)CC(O)(C5C6OC)C(O)(C(OC)C23)C14` (stereo not given), the TGI in test [1] was above 375 µM; in test [7], above 375 µM; in [8] it was above 375 µM; in test [2], above 174 µM; in test [3] it was above 375 µM; in test [4] it was above 375 µM. Further, the TGI in test [5] and in test [6] was above 375 µM each time.
`OC[C@@H](O)[C@H](O)[C@H](O)[C@@H](O)C1SCCCS1`: the TGI in [1], in test [7], in [8], in test [9], in test [2] and in test [3] was above 100 µM each time. For the same compound, the TGI in test [4], in [5] and in test [6] was above 100 µM in each case.
Consider `N#Cc1ccccc1C#C/C=C\C#Cc1ccccn1`, for which the TGI in [10] turned out to be 38.3 µM; in test [1], 52.7 µM; in [7], 28.8 µM; in test [8], 33.5 µM; in [2], 19.2 µM; in test [3], 29.6 µM. In addition, the TGI was 44.3 µM in test [4], 31.9 µM in [5] and 38.3 µM in test [6].
On to `C#CCN(Cc1ccc2nc(-c3ccccc3)c(Cl)nc2c1)c1ccc(Cl)c(Cl)c1`, for which the TGI in [1], in test [7], in test [2], in test [3], in test [4] and in test [5] was above 100 µM throughout. This compound gave a TGI in test [6] above 100 µM.
Take `Cc1ccc(C2=C(c3ccccc3)C(O)(c3ccccc3)C(c3ccccc3)=C2c2ccc(C)cc2)cc1`: the TGI in test [1], in test [7], in test [3], in [4], in test [5] and in test [6] was above 100 µM throughout.
`OC[C@H](O)[C@@H](OCc1ccccc1)[C@H](NCc1ccccc1)c1cccs1`: the TGI in [1], in test [7], in test [8], in test [9], in [2] and in test [3] was above 100 µM in each case. Besides, the TGI in [4], in [5] and in test [6] was above 100 µM throughout.
Regarding `CCCN1CCN(c2ccc3nc(-c4ccc5nc(-c6ccc(OCC)cc6)[nH]c5c4)[nH]c3c2)CC1`, in test [10], the GI50 was 3.59 µM and the TGI came out at 50.1 µM. In test [2], the GI50 is 1.99 µM and the TGI was found to be 3.59 µM.
Consider `Cc1nc2cc3[nH]c4ccccc4c(=O)c3cc2s1`, for which the TGI in [1], in [7], in [2], in [3], in [4] and in test [5] was above 100 µM throughout. The same compound yielded a TGI in test [6] above 100 µM.
For the compound `CCc1cc2c(cc1O)CC[C@@H]1[C@@H]2CC[C@]2(C)[C@@H](O)CC[C@@H]12`, the TGI in test [1] is 12.1 µM; in test [7], 20 µM; in [8] it was 10.4 µM; in [9], 8.62 µM; in test [2] it was 11.5 µM; in [3] it was 17.4 µM. Also, the TGI came out at 20.9 µM in test [4], 16.6 µM in test [5] and 16.7 µM in [6]. Moreover, the GI50 in [2] is 2.94 µM.
Regarding `C=C1C(=O)OC2C=C(C)CC3C=C(CCC=C(C)CCC12)C(=O)O3` (stereo not given), the TGI in test [1] is 200 µM; in [7], 106 µM; in [8], 106 µM; in test [2], 116 µM; in test [3] it was 109 µM; in test [4], 148 µM. The TGI stood at 107 µM in test [5] and 121 µM in test [6].
As for `Nc1ccc2ncc(NCc3ccc(F)cc3)nc2c1`, the TGI in test [1], in test [7], in test [2], in test [3], in test [4] and in test [5] was above 100 µM throughout. Also, in [6], the TGI is above 100 µM.
As to `C#CCN1C(=O)CN2C(Cl)(Cl)C2(c2ccccc2)c2cc(Cl)ccc21` (stereo not given), the TGI was above 100 µM in [1]; above 100 µM in test [7]; above 100 µM in [2]; 94 µM in test [3]; above 100 µM in test [4]; above 100 µM in [5].
In the case of `CC(=O)Nc1ccc(S(=O)(=O)Nc2cnc3ccccc3n2)cc1`, the TGI in test [1], in test [7], in [2], in test [3], in test [4] and in test [5] was above 100 µM in each case. For the same compound, the TGI in [6] is above 100 µM.
